US20240099989A1, “AGENT FOR PREVENTING OR IMPROVING PERIPHERAL NEUROPATHY” (KINKI UNIVERSITY, priority 2021, published 2024)
Where two headings read alike, the source gives them in different places.

What was measured:
[1] = tested on: Peripheral Neuropathy in a Mouse Caused by Vincristine; assay type: in vivo, Balb/c mice
Description: (§1) Six to seven-week-old female Balb/c mice were used for the tests. All the mice were acclimated for seven days after arrival. Then, the mice were grouped into the following four groups: a control group, a group receiving vincristine, a group receiving xylitol, and a group receiving vincristine and xylitol (a group receiving vincristine+xylitol). Each group consisted of five mice.
(§2) On Day 8 of acclimation, the mice in the group receiving vincristine and the group receiving vincristine+xylitol were intraperitoneally administered with vincristine at a dose of 0.2 mg/kg. This day was designated as Day 0 of administration. Thereafter, these mice were intraperitoneally administered with vincristine at a daily dose of 0.2 mg/kg on Day 7 and Day 14.
The mice in the group receiving xylitol and the group receiving vincristine+xylitol were orally administered with xylitol at a dose of 5 mg/kg daily from Day 0.
(§3) A cold plate test was performed to examine the effect of xylitol on paresthesia that is caused by a low temperature stimulus. The mice in the four groups described in (7) of the present example (Example 1) were placed on a cold plate set at 10° C., and withdrawal response time (latent time) was measured. It is presumed that a shorter latent time reflects a greater degree of shunning the low temperature stimulus by the cold plate.
as §1, with “tests as with Example 1.” for “tests.”
On Day 8 of acclimation, the mice in the group receiving vincristine and the group receiving vincristine+xylitol were intraperitoneally administered with vincristine at a dose of 0.2 mg/kg. This day was designated as the first day of the administration (Day 0). Thereafter, these mice were intraperitoneally administered with vincristine at the same dose on Day 7 and Day 14 for a total of 3 doses.
The mice in the group receiving 100 mg/kg xylitol were orally administered with xylitol at a dose of 100 mg/kg daily from Day 0. The mice in the group receiving vincristine+100 mg/kg xylitol were orally administered with xylitol at a dose of 100 mg/kg daily from Day 6 of administration.
as §3, with “A” for “A cold plate”, “performed on the mice in the four groups described in (9) of the present example (Example 2)” for “performed”, “respective” for “the four”, “groups” for “groups described in (7) of the present example (Example 1)”
as §1, with “tests as with Example 1.” for “tests.”, “D-threitol,” for “xylitol,”, “D-threitol” for “xylitol”, “vincristine+D-threitol).” for “vincristine+xylitol).”
as §2, with “vincristine+D-threitol” for “vincristine+xylitol”
The mice in the group receiving D-threitol and the group receiving vincristine+D-threitol were orally administered with D-threitol at a dose of 5 mg/kg daily from Day 0.
A cold plate test was performed to examine the effect of D-threitol on paresthesia that is caused by a low temperature stimulus. […]

[2] = as is well known; except diarrhea no side effects due to overdose observed; cited from earlier work
[3] = 0.2 mg/kg vincristine + 5 mg/kg test substance orally daily from Day 0 (prevention)
[4] = 0.2 mg/kg vincristine + 100 mg/kg orally daily from Day 6, on Day 12, vs group receiving 0.2 mg/kg vincristine

| Structure (SMILES) | withdrawal response time (latent time) [1, 3] | withdrawal response time (latent time) ([1]; 0.2 mg/kg vincristine + 100 mg/kg orally daily from Day 6 (therapy), time course after Day 6) | withdrawal response time (latent time) [1, 4] | safety for the human body [2] |
| --- | --- | --- | --- | --- |
| OC[C@@H](O)[C@H](O)CO [D-threitol] | approximately similar to that of the control group | significantly longer withdrawal response time | significantly longer withdrawal response time | safe for the human body |
| OC[C@H](O)[C@H](O)[C@H](O)[C@@H](O)CO [L-talitol] | approximately similar to that of the control group |  | significantly longer withdrawal response time | safe for the human body |
| OC[C@@H](O)[C@H](O)[C@@H](O)CO [xylitol] | approximately similar to that of the control group |  | significantly longer withdrawal response time | safe for the human body |
